Measurements reported in US5321043A, “Method of combatting transplant rejection” (The University of Melbourne, priority 1992, dated 1994).
Entries after “also recorded” stand apart in the source; their conditions may differ.

What was measured:
[1] = system: MLC response of responder lymphocytes to irradiated EBV-transformed lymphoblastoid cells; test: Mixed lymphocyte culture (MLC) suppression by CyA and PG analogues, alone and combined (tritiated thymidine uptake); assay type: cell-based, human; settings: for interaction with CyA on MLC suppression / decrease in PG analogue concentration necessary for 50% MLC suppression when combined with CyA vs alone: combination with CyA; for Suppression of MLC responses, mean % decrease of cpm vs drug-free cultures: mean of five donors
Protocol: Heparinised blood was obtained from five healthy donors without history of previous blood transfusion, pregnancy, or organ transplantation.
Prostaglandin (PG) analogues PGE1, PGE2, PGF2a, and PGI2 were supplied by the Upjohn Company (Kalamazoo, Mich.) in the form of 15-(s)-15-methyl PGE1, 16,16-dimethyl PGE2, 16,16-dimethyl PGF2α, and 9-deoxy-2,9a-methano-3-oxa-4,5,6-trinor-3,7-(1', 3'-interphenylene)-13,14'-dihydroprostaglandin FI (Compound A). Each was provided in methyl acetate at 10 mg/mL that was subsequently diluted, first with ethyl alcohol to a concentration of 1 mg/mL and thereafter with physiological saline to the concentration range required for the study, 10.0-0.001 μg/mL.
Responder lymphocytes were isolated from the healthy donor heparinised blood by density gradient separation and suspended in glutamine, antibiotic-supplemented RPMI medium containing 10% autologous responder lymphocyte donor serum at a concentration of 1 ×10^6 cells/mL. The stimulator population consisted of Epstein-Barr virus (EBV)-transformed lymphoblastoid cells that were irradiated (130 Gy) before suspension also at 1×10^6 cells/mL in glutamine, antibiotic-supplemented RPMI medium that contained 10% autologous responder lymphocyte donor serum.
Equal volumes (0.1 mL) of responder and stimulator cells were incubated in triplicate wells of microtitre trays with each of the following:
Following incubation at 37° C. (5% CO2) for 4 days, […] of tritiated thymidine was added to all cultures before further incubation for 6-8 hours, after which cells were automatically harvested (Skatron, Liebyen, Norway) on Titertek filter paper (Flow Laboratories, Irvine, Scotland) that was placed in vials containing liquid scintillation fluid for counting in a Beckman beta counter (Beckman, Brea, Calif.).

renal allograft = test: Rabbit renal allograft survival; assay type: in vivo
Protocol: Left orthotopic renal transplantation was performed from New Zealand White rabbit donors into Anglo lop-ear recipients. See D. Francis et al., Aust. N. Z. J. Surgery 60, 45, 1990. Contralateral nephrectomy and graft biopsy were performed on the first post-operative day. Each recipient was subsequently dependent on its transplant for renal function. Serum creatinine (sCr) was measured every 48 hours and animals were culled once sCr had risen above 1.2 mMoles/1, taken as an arbitrary end-point representing graft failure. Graft biopsies were performed weekly and post-mortem to ensure that graft loss was secondary to rejection. Standard haematoxylin and eosin and Masson's trichrome stains were performed.
Compound A was provided as a powder which was dissolved in absolute ethanol to yield a 1 mg/ml solution. 50 μg/kg/day was administered subcutaneously for seven days commencing perioperatively. Ethanol (50 μl/kg/day) was administered in vehicle-only control animals.

[2] = system: New Zealand White rabbits; test: Acute cyclosporine (CyA) nephrotoxicity in rabbits (serum creatinine, urea, histology); assay type: in vivo, rabbit; settings: Compound A 50 ug/kg/day s.c. with CyA 100 mg/kg/day i.v.
Protocol: 50 ug/kg/day was administered subcutaneously for seven days. Ethanol (50 ul/kg/day) was administered in vehicle-only control animals.
Serum creatinine (Cr) and urea were measured prior to commencement of treatment (day 0) and 24 hours following treatment (day 7). Day 7 renal biopsies were stained with haematoxylin and eosin and Masson's trichrome.

[3] = Blood CyA levels after seven days treatment in nephrotoxicity study (Abbott TDX fluorescence immunoassay); assay type: in vivo, rabbit; settings: CyA administered parenterally
Protocol: Compound A was provided as a powder which was dissolved in absolute ethanol to yield a […] solution. 50 ug/kg/day was administered subcutaneously for seven days. Ethanol (50 ul/kg/day) was administered in vehicle-only control animals.

[4] = PG analogue 0.01 μg/mL + CyA 0.001 μg/mL
[5] = PG analogue 0.01 μg/mL + CyA 0.01 μg/mL
[6] = PG analogue 0.01 μg/mL + CyA 0.1 μg/mL
[7] = PG analogue 0.01 μg/mL + CyA 1.0 μg/mL
[8] = PG analogue 0.01 μg/mL + CyA 10.0 μg/mL
[9] = PG analogue 0.1 μg/mL + CyA 0.001 μg/mL
[10] = PG analogue 0.1 μg/mL + CyA 0.01 μg/mL
[11] = PG analogue 0.1 μg/mL + CyA 0.1 μg/mL
[12] = PG analogue 0.1 μg/mL + CyA 1.0 μg/mL
[13] = PG analogue 0.1 μg/mL + CyA 10.0 μg/mL
[14] = PG analogue 1.0 μg/mL + CyA 0.001 μg/mL
[15] = PG analogue 1.0 μg/mL + CyA 0.01 μg/mL
[16] = PG analogue 1.0 μg/mL + CyA 0.1 μg/mL
[17] = PG analogue 1.0 μg/mL + CyA 1.0 μg/mL
[18] = PG analogue 1.0 μg/mL + CyA 10.0 μg/mL
[19] = PG analogue 10.0 μg/mL + CyA 0.001 μg/mL
[20] = PG analogue 10.0 μg/mL + CyA 0.01 μg/mL
[21] = PG analogue 10.0 μg/mL + CyA 0.1 μg/mL
[22] = PG analogue 10.0 μg/mL + CyA 1.0 μg/mL
[23] = PG analogue 10.0 μg/mL + CyA 10.0 μg/mL

| SMILES | Suppression of MLC responses by CyA in combination with PG analogue [1, 4] [%] | Suppression of MLC responses by CyA in combination with PG analogue [1, 5] [%] | Suppression of MLC responses by CyA in combination with PG analogue [1, 6] [%] | Suppression of MLC responses by CyA in combination with PG analogue [1, 7] [%] | Suppression of MLC responses by CyA in combination with PG analogue [1, 8] [%] | Suppression of MLC responses by CyA in combination with PG analogue [1, 9] [%] | Suppression of MLC responses by CyA in combination with PG analogue [1, 10] [%] | Suppression of MLC responses by CyA in combination with PG analogue [1, 11] [%] | Suppression of MLC responses by CyA in combination with PG analogue [1, 12] [%] | Suppression of MLC responses by CyA in combination with PG analogue [1, 13] [%] | Suppression of MLC responses by CyA in combination with PG analogue [1, 14] [%] | Suppression of MLC responses by CyA in combination with PG analogue [1, 15] [%] | Suppression of MLC responses by CyA in combination with PG analogue [1, 16] [%] | Suppression of MLC responses by CyA in combination with PG analogue [1, 17] [%] | Suppression of MLC responses by CyA in combination with PG analogue [1, 18] [%] | Suppression of MLC responses by CyA in combination with PG analogue [1, 19] [%] | Suppression of MLC responses by CyA in combination with PG analogue [1, 20] [%] | Suppression of MLC responses by CyA in combination with PG analogue [1, 21] [%] | Suppression of MLC responses by CyA in combination with PG analogue [1, 22] [%] | Suppression of MLC responses by CyA in combination with PG analogue [1, 23] [%] | also measured |
| --- | --- | --- | --- | --- | --- | --- | --- | --- | --- | --- | --- | --- | --- | --- | --- | --- | --- | --- | --- | --- | --- |
| CCCCC(C)(C)[C@H](O)/C=C/[C@@H]1[C@@H](C/C=C\CCCC(=O)O)[C@@H](O)C[C@H]1O [PGF2α, 16,16-dimethyl PGF2α] | 14 | 25 | 55 | 70 | 86 | 14 | 24 | 55 | 72 | 86 | 31 | 30 | 58 | 76 | 85 | 58 | 65 | 69 | 79 | 86 | interaction with CyA on MLC suppression ([1]; listed as PGF2a): no influence further than that exerted when each was added alone; also recorded: no indication of synergistic interaction with CyA; minimum concentration which alone induced 50% MLC inhibition ([1]; single agent): 10.0 µg/mL; Suppression of MLC responses, mean % decrease of cpm vs drug-free cultures ([1]; single agent at 0.001 μg/mL): 0%; Suppression of MLC responses, mean % decrease of cpm vs drug-free cultures ([1]; single agent at 0.01 μg/mL): 4%; Suppression of MLC responses, mean % decrease of cpm vs drug-free cultures ([1]; single agent at 0.1 μg/mL): 16%; Suppression of MLC responses, mean % decrease of cpm vs drug-free cultures ([1]; single agent at 1.0 μg/mL): 29%; Suppression of MLC responses, mean % decrease of cpm vs drug-free cultures ([1]; single agent at 10.0 μg/mL): 50% |
| CCCCC[C@H](O)CC[C@@H]1[C@H]2Cc3cccc(OCC(=O)O)c3C[C@H]2C[C@H]1O [Compound A, 9-deoxy-2',9α-methano-3-oxa-4,5,6-trinor-3,7-(1',3'-interphenylene)-13, 14--dihydro-prostaglandinF1] | 27 | 58 | 75 | 86 | 87 | 68 | 76 | 86 | 85 | 85 | 81 | 85 | 85 | 85 | 88 | 86 | 88 | 85 | 86 | 86 | decrease in PG analogue concentration necessary for 50% MLC suppression when combined with CyA vs alone [1]: 10 fold; interaction with CyA on MLC suppression [1]: a synergy that parallels that observed between CyA and the PGE analogues; Suppression of MLC responses, mean % decrease of cpm vs drug-free cultures ([1]; single agent at 0.001 μg/mL): 10%; Suppression of MLC responses, mean % decrease of cpm vs drug-free cultures ([1]; single agent at 0.01 μg/mL): 22%; Suppression of MLC responses, mean % decrease of cpm vs drug-free cultures ([1]; single agent at 0.1 μg/mL): 51%; Suppression of MLC responses, mean % decrease of cpm vs drug-free cultures ([1]; single agent at 1.0 μg/mL): 61%; Suppression of MLC responses, mean % decrease of cpm vs drug-free cultures ([1]; single agent at 10.0 μg/mL): 77%; times more effective in suppressing the MLC response than PGE1 and PGE2 ([1]; single agents): 10 times; effect on renal allograft survival (renal allograft; Compound A 50 μg/kg/day s.c., CyA 20 mg/kg where combined): prolonged allograft survival over that of untreated animals; Median Graft Survival (renal allograft; Compound A 50 μg/kg/day subcutaneously for seven days, no CyA): 13.5 days; effect on renal function, as measured by serum Cr and urea [2]: significant protective effect on renal function; effect on renal function, as measured by serum Cr and urea ([2]; listed as PGI2 analogue): significant protective affect on renal function; effect on CyA bioavailability [3]: without effecting CyA bioavailability |
| CCCCC(C)(C)[C@H](O)/C=C/[C@H]1[C@H](O)CC(=O)[C@@H]1C/C=C\CCCC(=O)O [PGE2, 16,16-dimethyl PGE2] | 23 | 49 | 55 | 63 | 68 | 26 | 52 | 58 | 66 | 70 | 58 | 56 | 67 | 80 | 85 | 60 | 71 | 72 | 88 | 86 | decrease in PG analogue concentration necessary for 50% MLC suppression when combined with CyA vs alone [1]: 100 fold; Suppression of MLC responses, mean % decrease of cpm vs drug-free cultures ([1]; single agent at 0.001 μg/mL): 6%; Suppression of MLC responses, mean % decrease of cpm vs drug-free cultures ([1]; single agent at 0.01 μg/mL): 18%; Suppression of MLC responses, mean % decrease of cpm vs drug-free cultures ([1]; single agent at 0.1 μg/mL): 32%; Suppression of MLC responses, mean % decrease of cpm vs drug-free cultures ([1]; single agent at 1.0 μg/mL): 51%; Suppression of MLC responses, mean % decrease of cpm vs drug-free cultures ([1]; single agent at 10.0 μg/mL): 58%; times more effective in suppressing the MLC response than the PGF2a analogue ([1]; single agents): 10 times |
